Measured values as given in patent US20130078317A1, “ZINC-CONTAINING COMPOSITIONS FOR THE TREATMENT OF DISEASES, ILLNESSES AND SYNDROMES ASSOCIATED WITH EXPOSURE TO PORE FORMING TOXINS” (priority 2009, published 2013).

Experiments:
[1] = target: T1, purified hemolysin from Carybdea alata (Alatina alata, UniProt Q9GNN8); assay: Potassium efflux induced by purified hemolysin from Carybdea alata in isolated red blood cells; type: cell-based; details: 2% RBC; FIG. 4 legend
T1 sequence (Q9GNN8 31-463 limits assumed): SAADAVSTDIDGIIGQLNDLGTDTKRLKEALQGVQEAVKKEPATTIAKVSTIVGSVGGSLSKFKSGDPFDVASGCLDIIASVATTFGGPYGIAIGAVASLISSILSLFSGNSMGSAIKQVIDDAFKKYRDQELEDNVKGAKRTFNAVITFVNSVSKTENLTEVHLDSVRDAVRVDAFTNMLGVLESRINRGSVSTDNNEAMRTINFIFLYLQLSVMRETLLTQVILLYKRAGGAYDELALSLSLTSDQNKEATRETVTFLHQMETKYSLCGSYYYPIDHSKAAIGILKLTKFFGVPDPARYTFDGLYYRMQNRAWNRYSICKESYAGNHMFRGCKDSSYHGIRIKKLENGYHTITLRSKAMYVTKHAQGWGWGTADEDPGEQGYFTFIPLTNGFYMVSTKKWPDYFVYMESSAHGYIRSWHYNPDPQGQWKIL

Carybdea alata hemolysin = target: T2, Carybdea alata hemolysin (Alatina alata, UniProt Q9GNN8); assay: Hemolysis induced by Carybdea alata hemolysin in 2% RBC; type: cell-based; details: 5 mM zinc gluconate
T2 sequence (Q9GNN8 31-463 limits assumed): T1 sequence (Q9GNN8 31-463 limits assumed)

Substance: zinc gluconate
- potassium efflux induced by purified hemolysin from Carybdea alata [1]: inhibits
- hemolysis induced by Carybdea alata hemolysin (Carybdea alata hemolysin): substantially inhibited
